Patent US20140155376A1, “PYRROLOPYRAZINE KINASE INHIBITORS” (Hoffmann-La Roche Inc., priority 2010, published 2014)
pIC50: −log10 of the molar value.

Target: T1, JAK3 (recombinant human kinase domain; h-jak3(810-1124)) (Homo sapiens, UniProt P52333)
T1 construct: h-jak3(810- 1124)-sf9-c; made in house; host or cells: Sf9 insect cells
Assay: Determination of IC50 of Janus Kinase (JAK) inhibition: JAK3, radioactive end-point assay with 33P-ATP
Format: biochemical
Conditions: JAK3 kinase domain; ATP 1.5 uM, peptide 50 uM, 20 minutes, room temperature, 10% DMSO; read-out: Ic50 h-jak3(810-1124)-sf9-c:no additive
Source text: Determination of IC50 of Janus Kinase (JAK) Inhibition:
Enzymes and peptide substrate used are described below: • JAK1: Recombinant human kinase domain from Invitrogen (Cat # PV4774) • JAK3: Recombinant human kinase domain from Millipore (Cat #14-629) or prepared. • JAK2: Recombinant human kinase domain from Millipore (Cat #14-640) • Substrate: N-terminally biotinylated 14-mer peptide derived from activation loop of JAK1 with sequence of the peptide substrate: Biotin-[sequence]
Assay Conditions Used are Described Below: • Assay Buffer: JAK Kinase Buffer: 50 mM Hepes [pH 7.2], 10 mM MgCl2, 1 mM DTT, • 1 mg/ml BSA. The assay is carried out in this buffer. • Assay Format The kinase activity of all three JAK kinases is measured using a radioactive, end-point assay and with trace amounts of ^33P-ATP. The assays are carried out in 96-well polypropylene plates.
All concentrations are final in the reaction mixture and all incubations are carried at room temperature. […] Final concentration of DMSO in the reaction is 10%. • 2) Compounds are preincubated with enzyme (0.5 nM JAK3 (commercially available), 0.2 nM JAK3 (prepared), 1 nM JAK2, 5 nM JAK1) for 10 minutes. • 3) Reactions are initiated by the addition of a cocktail of the two substrates (ATP and peptide premixed in the JAK Kinase Buffer). In the JAK2/JAK3 assays, ATP and the peptide are used at concentrations of 1.5 uM and 50 uM, respectively. JAK1 assay is carried out at an ATP concentration of 10 uM and a peptide concentration of 50 uM. • 4) The duration of the assay for JAK2 and JAK3 is 20 minutes. JAK1 assay is carried out for 40 minutes. With all three enzymes, reactions are terminated by the addition of 0.5M EDTA to a final concentration of 100 mM. • 5) 25 ul of terminated reactions are transferred to 150 ul of a 7.5% (v/v) slurry of streptavidin-coated sepharose beads in MgCl2- and CaCl2-free 1× Phosphate Buffered Saline containing 50 mM of EDTA in 96-well, 1.2 um MultiScreen-BV filter plates. • 6) After a 30-minute incubation, the beads are washed under vacuum with the following buffers: • a. 3 to 4 washes with 200 ul of 2M NaCl. • b. 3 to 4 washes with 200 ul of 2M NaCl plus 1% (v/v) phosphoric acid. • c. 1 wash with water. • 7) Washed plates are dried in a 60° C. oven for between 1 to 2 hours. • 8) 70 ul of Microscint 20 scintillation fluid is added to each well of filter plates and after at least 30 minutes of incubation, radioactive counts are measured in a Perkin-Elmer microplate scintillation counter.

T1 sequence (P52333 810-1124): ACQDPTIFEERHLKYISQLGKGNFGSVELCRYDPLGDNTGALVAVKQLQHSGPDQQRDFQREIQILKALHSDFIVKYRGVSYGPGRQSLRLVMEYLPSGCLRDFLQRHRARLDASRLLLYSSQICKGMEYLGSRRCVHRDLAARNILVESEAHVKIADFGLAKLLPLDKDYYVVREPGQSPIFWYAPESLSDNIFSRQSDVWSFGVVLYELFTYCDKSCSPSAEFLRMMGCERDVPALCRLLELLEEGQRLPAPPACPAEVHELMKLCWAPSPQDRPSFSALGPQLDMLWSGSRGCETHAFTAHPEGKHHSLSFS

`Cc1ccc(-c2cnc3[nH]cc(C(=O)N[C@@H](C)C(C)(C)O)c3n2)cn1` [Example I-21, 2-(6-Methyl-pyridin-3-yl)-5H-pyrrolo[2,3-b]pyrazine-7-carboxylic acid ((S)-2-hydroxy-1,2-dimethyl-propyl)-amide] was tested, and the pIC50 was 7.35.

Molecule `C=Cc1cccc(-n2cnc(-c3cnc4[nH]cc(C(=O)N[C@@H](C)C(C)(C)C)c4n3)c2)c1` [Example I-163, 2-[1-(3-Vinyl-phenyl)-1H-imidazol-4-yl]-5H-pyrrolo[2,3-b]pyrazine-7-carboxylic acid ((S)-1,2,2-trimethyl-propyl)-amide] has a pIC50 of 8.52.

Molecule `CC(C)NC(=O)c1c[nH]c2ncc(Oc3ccc(F)cc3F)nc12` [Example I-132, 2-(2,4-Difluoro-phenoxy)-5H-pyrrolo[2,3-b]pyrazine-7-carboxylic acid isopropylamide] has a pIC50 of 6.38.

Molecule `C[C@@H](NC(=O)c1c[nH]c2ncc(C3CC3)nc12)C1CCCCC1` [Example I-60, 2-Cyclopropyl-5H-pyrrolo[2,3-b]pyrazine-7-carboxylic acid ((R)-1-cyclohexyl-ethyl)-amide] has a pIC50 of 7.82.

`CC(C)NC(=O)c1c[nH]c2ncc(Oc3ccc4c(c3)CCCC4)nc12` [Example I-240, 2-(5,6,7,8-Tetrahydro-naphthalen-2-yloxy)-5H-pyrrolo[2,3-b]pyrazine-7-carboxylic acid isopropylamide] showed a pIC50 of 6.50.

`C[C@H](NC(=O)c1c[nH]c2ncc(-c3ccc(C(=O)NC45CC6CC(CC(C6)C4)C5)s3)nc12)C(C)(C)C` [Example I-194, 2-[5-(Adamantan-1-ylcarbamoyl)-thiophen-2-yl]-5H-pyrrolo[2,3-b]pyrazine-7-carboxylic acid ((S)-1,2,2-trimethyl-propyl)-amide] gave a pIC50 of 8.87.

`C[C@H](NC(=O)c1c[nH]c2ncc(C3CC3)nc12)C1(O)CCCC1` [Example I-97, 2-Cyclopropyl-5H-pyrrolo[2,3-b]pyrazine-7-carboxylic acid [(S)-1-(1-hydroxy-cyclopentyl)-ethyl]-amide] gave a pIC50 of 7.74.

In the case of `Cc1ccccc1CNC(=O)c1ccc(-c2cnc3[nH]cc(C(=O)N[C@@H](C)C(C)(C)C)c3n2)s1` [Example I-187, 2-[5-(2-Methyl-benzylcarbamoyl)-thiophen-2-yl]-5H-pyrrolo[2,3-b]pyrazine-7-carboxylic acid ((S)-1,2,2-trimethyl-propyl)-amide], the pIC50 was 9.34.

With `Cc1cc(-c2cnc3[nH]cc(C(=O)N[C@@H](C)C(C)(C)C)c3n2)sc1C(=O)N1CC2(COC2)C1` [Example I-221, 2-[4-Methyl-5-(2-oxa-6-aza-spiro[3.3]heptane-6-carbonyl)-thiophen-2-yl]-5H-pyrrolo[2,3-b]pyrazine-7-carboxylic acid ((S)-1,2,2-trimethyl-propyl)-amide] the pIC50 was 10.10.

`CCC(=O)N[C@@H]1CCc2ccc(Oc3cnc4[nH]cc(C(=O)NC(C)C)c4n3)cc21` [Example I-282, 2-((R)-3-Propionylamino-indan-5-yloxy)-5H-pyrrolo[2,3-b]pyrazine-7-carboxylic acid isopropylamide] showed a pIC50 of 6.90.

With `C[C@H](NC(=O)c1c[nH]c2ncc(C3CC3)nc12)c1cc[nH]n1` [Example I-37, 2-Cyclopropyl-5H-pyrrolo[2,3-b]pyrazine-7-carboxylic acid [(S)-1-(1H-pyrazol-3-yl)-ethyl]-amide] the pIC50 was 7.66.

For `O=C(N[C@H](C1CC1)C1(O)CCCC1)c1c[nH]c2ncc(C3CC3)nc12` [Example I-104, 2-Cyclopropyl-5H-pyrrolo[2,3-b]pyrazine-7-carboxylic acid [(R)-cyclopropyl-(1-hydroxy-cyclopentyl)-methyl]-amide], the pIC50 was 7.79.

Work on `CC[C@@](C)(O)[C@H](C)NC(=O)c1c[nH]c2ncc(C3CC3)nc12` [Example I-34, 2-Cyclopropyl-5H-pyrrolo[2,3-b]pyrazine-7-carboxylic acid ((1S,2R)-2-hydroxy-1,2-dimethyl-butyl)-amide] yielded a pIC50 of 7.44.

`C[C@H](NC(=O)c1c[nH]c2ncc(-c3ccc(C(=O)NCCC(F)(F)F)s3)nc12)C(C)(C)C` [Example I-216, 2-[5-(3,3,3-Trifluoro-propylcarbamoyl)-thiophen-2-yl]-5H-pyrrolo[2,3-b]pyrazine-7-carboxylic acid ((S)-1,2,2-trimethyl-propyl)-amide] was tested, and the pIC50 was 9.74.

Work on `CC(C)NC(=O)c1c[nH]c2ncc(Oc3cccc(Cl)c3)nc12` [Example I-243, 2-(3-Chloro-phenoxy)-5H-pyrrolo[2,3-b]pyrazine-7-carboxylic acid isopropylamide] yielded a pIC50 of 6.51.

`CC(C)NC(=O)c1c[nH]c2ncc(Oc3ccccc3C(F)(F)F)nc12` [Example I-236, 2-(2-Trifluoromethyl-phenoxy)-5H-pyrrolo[2,3-b]pyrazine-7-carboxylic acid isopropylamide] showed a pIC50 of 5.53.

For `CC(C)(C)[C@@H](CO)NC(=O)c1c[nH]c2ncc(C3CC3)nc12` [Example I-47, 2-Cyclopropyl-5H-pyrrolo[2,3-b]pyrazine-7-carboxylic acid ((S)-1-hydroxymethyl-2,2-dimethyl-propyl)-amide], the pIC50 was 6.46.

With `COc1cccc(CNC(=O)c2ccc(-c3cnc4[nH]cc(C(=O)N[C@@H](C)C(C)(C)C)c4n3)s2)c1` [Example I-206, 2-[5-(3-Methoxy-benzylcarbamoyl)-thiophen-2-yl]-5H-pyrrolo[2,3-b]pyrazine-7-carboxylic acid ((S)-1,2,2-trimethyl-propyl)-amide] the pIC50 was 9.49.

In the case of `CCCC[C@H](NC(=O)c1c[nH]c2ncc(C3CC3)nc12)C(C)(C)O` [Example I-49, 2-Cyclopropyl-5H-pyrrolo[2,3-b]pyrazine-7-carboxylic acid [(S)-1-(1-hydroxy-1-methyl-ethyl)-pentyl]-amide], the pIC50 was 6.34.

For `C[C@@H](NC(=O)c1c[nH]c2ncc(-c3cnn(C)c3)nc12)C(C)(C)O` [Example I-102, 2-(1-Methyl-1H-pyrazol-4-yl)-5H-pyrrolo[2,3-b]pyrazine-7-carboxylic acid ((R)-2-hydroxy-1,2-dimethyl-propyl)-amide], the pIC50 was 7.99.

With `CC(C)c1cnc2[nH]cc(C(=O)N[C@@H](C)C(C)(C)O)c2n1` [Example I-5, 2-Isopropyl-5H-pyrrolo[2,3-b]pyrazine-7-carboxylic acid ((S)-2-hydroxy-1,2-dimethyl-propyl)-amide] the pIC50 was 6.52.

In the case of `CC(C)(CNC(=O)c1c[nH]c2ncc(C3CC3)nc12)CS(C)(=O)=O` [Example I-98, 2-Cyclopropyl-5H-pyrrolo[2,3-b]pyrazine-7-carboxylic acid (3-methanesulfonyl-2,2-dimethyl-propyl)-amide], the pIC50 was 7.95.

With `CC(=O)N[C@@H]1CCc2ccc(Oc3cnc4[nH]cc(C(=O)NC(C)C#N)c4n3)cc21` (stereo partly drawn) [Example I-298, 2-((R)-3-Acetylamino-indan-5-yloxy)-5H-pyrrolo[2,3-b]pyrazine-7-carboxylic acid (cyano-methyl-methyl)-amide] the pIC50 was 6.41.

`CC(C)NC(=O)c1c[nH]c2ncc(Oc3ccc4c(c3)[C@H](NC(N)=O)CC4)nc12` [Example I-299, 2-((R)-3-Ureido-indan-5-yloxy)-5H-pyrrolo[2,3-b]pyrazine-7-carboxylic acid isopropylamide] showed a pIC50 of 6.84.

`C[C@H](NC(=O)c1c[nH]c2ncc(-c3ccc(C(=O)NCC#N)s3)nc12)C(C)(C)C` [Example I-172, 2-[5-(Cyanomethyl-carbamoyl)-thiophen-2-yl]-5H-pyrrolo[2,3-b]pyrazine-7-carboxylic acid ((S)-1,2,2-trimethyl-propyl)-amide] showed a pIC50 of 9.85.
